From patent publication US20140088197A1, “MIXED CRYSTAL AGOMELATINE (FORM VIII), PREPARATION METHOD AND USE THEREOF AND PHARMACEUTICAL COMPOSITION CONTAINING SAME” (LES LABORATORIES SERVIER, priority 2011, published 2014)
Values after ≈ are worked out from the molar mass of the structure shown. Read-outs that look alike come from different tables or passages of the source.

Legend:
Type in all cases: physicochemical
[1] = Storage stability at 40° C. for 20 days, purity and content by HPLC; conditions: for Content: external standard method; for Purity: internal standard method
Protocol: Agomelatine crystalline forms VI and VIII (obtained through embodiment 2) are each placed in thermostatic containers at a temperature of 40° C. and stored for 20 days, with the stability of these samples being studied using the method of High Performance Liquid Chromatography.
1. Purity Measurement of the Sample
Chromatographic conditions: Octadecyl silane chemically bonded silica is used as packing; a mixed solution of 10 mmol/L phosphate buffer (adjusted to pH 7.0 with sodium hydroxide) and acetonitrile in the ratio 2:7 by volume acts as the mobile phase; column temperature 40° C.; and detection wavelength 220 nm. Purity is measured using an internal standard method.
In the mobile phase, crystalline forms VI and VIII are distributed into 1 mg/mL solutions, 10 μL of each of which are then passed into a liquid chromatograph, with their chromatograms being recorded.
The reference sample purity measurement method was used, with measurements being made using an […], the results can be seen in Table I.

[2] = Measurement of water solubility (HPLC, external standard); conditions: for solubility: water
Description: 3. Measurement of Water Solubility
The HPLC method was used to determine water solubility, with measurements being made using an external standard method.

[3] = Determination of crystalline stability (pharmacopoeia stability assessment method); design: key to Crystalline stability, long term testing (6 months) / Crystalline stability, long term testing (9 months) / Crystalline stability, long term testing (12 months) / Crystalline stability, influencing factor: high temperature / Crystalline stability, influencing factor: illumination / Crystalline stability, influencing factor: high humidity / Crystalline stability, accelerated testing: √—stable; x—unstable; conditions: for Crystalline stability, influencing factor: high temperature: 60° C.; for Crystalline stability, influencing factor: high temperature / Crystalline stability, influencing factor: high humidity / Crystalline stability, influencing factor: illumination: exposed for 10 days; for Crystalline stability, influencing factor: high humidity: 92.5% RH; for Crystalline stability, influencing factor: high humidity / Crystalline stability, long term testing (6 months) / Crystalline stability, long term testing (9 months) / Crystalline stability, long term testing (12 months): 25° C.; for Crystalline stability, accelerated testing: hermetically sealed for 6 months, 30° C., 65% RH; for Crystalline stability, long term testing (6 months) / Crystalline stability, long term testing (9 months) / Crystalline stability, long term testing (12 months): hermetically sealed, 60% RH
Description: 4. Determination of Crystalline Stability

[4] = after storage in thermostatically controlled containers at 40° C. for 20 days
[5] = compared with crystalline form VI

Content [1, 4] | Purity [1, 4] | Content ([1]; before storage) | Purity ([1]; before storage) | solubility ([2]; read-out: Solubility) | Crystalline stability, influencing factor: high temperature [3] | Crystalline stability, influencing factor: high humidity [3] | Crystalline stability, influencing factor: illumination [3] | Crystalline stability, accelerated testing [3] | Crystalline stability, long term testing (6 months) [3] | Crystalline stability, long term testing (9 months) [3] | Crystalline stability, long term testing (12 months) [3] | Solubility compared with crystalline form VI [2, 5] | solubility [2] | Stability under high temperature compared with crystalline form VI [3, 5] | Compound | Crystal transition under extreme conditions ([3]; high temperature of 60° C. for 10 days)
99.8% | 99.6% | 100.1% | 99.7% | 336 µg/mL (≈ 1380 µM) | x* | √ | √ | √ | √ | √ | x | – | – | – | COc1ccc2cccc(CCNC(C)=O)c2c1 [Crystalline form VI, N-[2-(7-methoxy-1-naphthyl)ethyl]acetamide, reference compound] | small amounts of crystal transition can occur
100.1% | 99.7% | 100.3% | 99.8% | – | √* | √ | √ | √ | √ | √ | √ | comparable solubility | 335 µg/mL (≈ 1380 µM) | greater stability under high temperature | COc1ccc2cccc(CCNC(C)=O)c2c1 [Form VIII, N-[2-(7-methoxy-1-naphthyl)ethyl]acetamide] | –
